Test results: ChEMBL document CHEMBL5528082 (J Med Chem, 2024)
pIC50, pKd: −log10 of the molar value. Converted amounts (≈) assume the structure as drawn. The source made the active and inactive calls. The rule behind the calls is not given here.

What was measured:
[1] = Oral bioavailability in Sprague-Dawley rat at 15 mg/kg measured for 24 hrs by LC/MS analysis; format: ADME, organism-based; settings: in vivo
Staphylococcus aureus [2] = experiment: Synergistic antibacterial activity against TMP-resistant Staphylococcus aureus BHKS 723 assessed as fractional inhibitory concentration index incubated for 24 hrs in presence of SMX by CLSI based broth microdilution assay; format: functional
[3] = Metabolic stability in mouse liver microsomes assessed as clearance rate at 3 uM measured for 120 mins by LC-MS/MS analysis; format: ADME, Microsome; settings: 2 h
[4] = Tmax in Sprague-Dawley rat at 5 mg/kg, iv measured for 24 hrs by LC/MS analysis; format: ADME, organism-based; settings: in vivo
[5] = Acute toxicity in C57 mouse assessed as body weight loss at 400 to 800 mg/kg, po measured for 4 days; format: organism-based; settings: in vivo, 96 h, dose 400-800 mg/kg, time 4 day
Staphylococcus aureus [6] = experiment: Antibacterial activity against TMP-resistant Staphylococcus aureus BHKS 227 incubated for 24 hrs by CLSI based broth microdilution assay; format: functional
Staphylococcus aureus [7] = experiment: Antibacterial activity against TMP-resistant Staphylococcus aureus BHKS 723 incubated for 24 hrs by CLSI based broth microdilution assay; format: functional
Mus musculus = experiment: Induction of inflammatory cell infiltration in C57 mouse model infected with methicillin-resistant Staphylococcus aureus ATCC 33591 at 2 to 10 mg/kg administered once a day for 3 days consecutively and measured after 24 hrs post-last dose by H and E staining based analysis; format: functional, organism-based; settings: dose 2-10 mg/kg, time 4.0 day
[8] = Cytotoxicity against HEK293 cells assessed as inhibition rate of cell growth at 100 uM incubated for 24 hrs by CCK8 assay relative to control; format: toxicity, cell-based; settings: human
[9] = Clearance in Sprague-Dawley rat at 5 mg/kg, iv measured for 24 hrs by LC/MS analysis; format: ADME, organism-based; settings: in vivo
[10] = Acute toxicity in C57 mouse assessed as damage in liver at 800 mg/kg, po measured after 1 week by H and E staining based analysis; format: organism-based; settings: in vivo, 168 h, time 1 weeks
[11] = Metabolic stability in human liver microsomes assessed as clearance rate at 3 uM measured for 120 mins by LC-MS/MS analysis; format: ADME, Microsome; settings: 2 h
[12] = Acute toxicity in C57 mouse assessed as damage in lung at 800 mg/kg, po measured after 1 week by H and E staining based analysis; format: organism-based; settings: in vivo, 168 h, time 1 weeks
[13] = AUC (0 to t) in Sprague-Dawley rat at 15 mg/kg, po measured for 24 hrs by LC/MS analysis; format: ADME, organism-based; settings: in vivo
Staphylococcus aureus [14] = experiment: Antibacterial activity against methicillin-resistant Staphylococcus aureus ATCC 33591 infected in C57 mouse model assessed as body weight recovery at 2 to 10 mg/kg administered once a day for 3 days consecutively and measured after 24 hrs post-last dose; format: functional, organism-based; settings: dose 2-10 mg/kg, time 4.0 day
[15] = Metabolic stability in human liver microsomes assessed as half life at 3 uM measured for 120 mins by LC-MS/MS analysis; format: ADME, Microsome; settings: 2 h
Staphylococcus aureus [16] = experiment: Antibacterial activity against methicillin-resistant Staphylococcus aureus ATCC 33591 infected in C57 mouse model assessed as decrease in pathological change at 2 to 10 mg/kg administered once a day for 3 days consecutively and measured after 24 hrs post-last dose by H and E staining based analysis; format: functional, organism-based; settings: dose 2-10 mg/kg, time 4.0 day
Staphylococcus aureus [17] = experiment: Antibacterial activity against methicillin-resistant Staphylococcus aureus ATCC 33591 infected in C57 mouse model assessed as reduction in bacterial count at 2 to 10 mg/kg administered once a day for 3 days consecutively and measured after 24 hrs post-last dose by colony counting method; format: functional, organism-based; settings: dose 2-10 mg/kg, time 4.0 day
[18] = Cmax in Sprague-Dawley rat at 5 mg/kg, iv measured for 24 hrs by LC/MS analysis; format: ADME, organism-based; settings: in vivo
[19] = Acute toxicity in C57 mouse assessed as liver inflammation at 800 mg/kg, po measured after 1 week by biochemical analysis; format: organism-based; settings: in vivo, 168 h, time 1 weeks
Staphylococcus aureus [20] = experiment: Antibacterial activity against TMP-resistant Staphylococcus aureus BHKS 721 incubated for 24 hrs by CLSI based broth microdilution assay; format: functional
[21] = Acute toxicity in C57 mouse assessed as damage in heart at 800 mg/kg, po measured after 1 week by H and E staining based analysis; format: organism-based; settings: in vivo, 168 h, time 1 weeks
[22] = Acute toxicity in C57 mouse assessed as damage in kidney at 800 mg/kg, po measured after 1 week by H and E staining based analysis; format: organism-based; settings: in vivo, 168 h, time 1 weeks
[23] = Acute toxicity in C57 mouse assessed as body weight loss at 400 to 800 mg/kg, po measured for 2 days; format: organism-based; settings: in vivo, 48 h, dose 400-800 mg/kg, time 2 day
Dihydrofolate reductase [24] = molecular target: Dihydrofolate reductase (Staphylococcus aureus, UniProt P0A017); experiment: Binding affinity to Staphylococcus aureus DHFR expressed in Escherichia coli BL21 (DE3) assessed dissociation constant by ITC analysis
Staphylococcus aureus [25] = experiment: Bactericidal activity against Staphylococcus aureus ATCC 25923 assessed as bacterial growth suppression measured for 24 hrs by time kill assay; format: functional, organism-based
[26] = AUC (0 to t) in Sprague-Dawley rat at 5 mg/kg, iv measured for 24 hrs by LC/MS analysis; format: ADME, organism-based; settings: in vivo
[27] = Tmax in Sprague-Dawley rat at 15 mg/kg, po measured for 24 hrs by LC/MS analysis; format: ADME, organism-based; settings: in vivo
Dihydrofolate reductase [28] = molecular target: T1, Dihydrofolate reductase (Homo sapiens, UniProt P00374); experiment: Inhibition of human DHFR
T1 sequence (P00374 whole entry): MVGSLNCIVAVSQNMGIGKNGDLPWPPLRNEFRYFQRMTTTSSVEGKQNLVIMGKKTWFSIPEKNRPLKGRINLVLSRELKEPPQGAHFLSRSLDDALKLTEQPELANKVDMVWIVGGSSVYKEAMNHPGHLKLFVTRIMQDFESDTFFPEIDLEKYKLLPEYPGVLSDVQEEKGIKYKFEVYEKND

Staphylococcus aureus [29] = experiment: Synergistic antibacterial activity against TMP-resistant Staphylococcus aureus BHKS 721 assessed as fractional inhibitory concentration index incubated for 24 hrs in presence of SMX by CLSI based broth microdilution assay; format: functional
[30] = Acute toxicity in C57 mouse assessed as animal death at 800 mg/kg, po measured after 1 week; format: organism-based; settings: in vivo, 168 h, time 1 weeks
[31] = Metabolic stability in mouse liver microsomes assessed as half life at 3 uM measured for 120 mins by LC-MS/MS analysis; format: ADME, Microsome; settings: 2 h
[32] = Cmax in Sprague-Dawley rat at 15 mg/kg, po measured for 24 hrs by LC/MS analysis; format: ADME, organism-based; settings: in vivo
Staphylococcus aureus [33] = experiment: Antibacterial activity against methicillin-resistant Staphylococcus aureus ATCC 33591 infected in C57 mouse model assessed as clear skin structure at 2 to 10 mg/kg administered once a day for 3 days consecutively and measured after 24 hrs post-last dose by H and E staining based analysis; format: functional, organism-based; settings: dose 2-10 mg/kg, time 4.0 day
Staphylococcus aureus [34] = experiment: Synergistic antibacterial activity against Staphylococcus aureus ATCC 25923 assessed as fractional inhibitory concentration index incubated for 24 hrs in presence of SMX by CLSI based broth microdilution assay; format: functional
Staphylococcus aureus [35] = experiment: Antibacterial activity against Staphylococcus aureus USA 300 incubated for 24 hrs by CLSI based broth microdilution assay; format: functional
[36] = Acute toxicity in C57 mouse assessed as damage in spleen at 800 mg/kg, po measured after 1 week by H and E staining based analysis; format: organism-based; settings: in vivo, 168 h, time 1 weeks
[37] = tested on: Dihydrofolate reductase (Staphylococcus aureus); settings: dose 100.0 nM

Sequence of Dihydrofolate reductase (Staphylococcus aureus, UniProt P0A017) (P0A017 whole entry): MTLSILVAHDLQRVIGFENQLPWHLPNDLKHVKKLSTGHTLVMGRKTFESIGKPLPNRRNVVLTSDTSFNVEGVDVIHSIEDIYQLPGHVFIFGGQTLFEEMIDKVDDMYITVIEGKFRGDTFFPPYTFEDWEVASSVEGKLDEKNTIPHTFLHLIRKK

CC(C)c1cc(OCC2CC2)c(I)cc1Oc1cnc(N)nc1N
bioavailability [1]: 40.7%
fractional inhibitory concentration index (FICI) (Staphylococcus aureus [2]): 0.156
CLH [3]: 4.1 µL/min/mg
Tmax [4]: 4.8 min
Activity [5]: Non-Toxic
MIC (Staphylococcus aureus [6]): 0.5 µg/mL (≈ 1.14 µM)
MIC (Staphylococcus aureus [7]): 2 µg/mL (≈ 4.54 µM)
Activity (Mus musculus): Active
inhibition at 24 h, 100 µM [8]: 59.1%
clearance [9]: 25 mL/min/kg
Activity [10]: Non-Toxic
CLH [11]: 0.7 µL/min/mg
Activity [12]: Non-Toxic
AUC(0-t) at 24 h [13]: 3920 ng·h/mL
Activity (Staphylococcus aureus [14]): Active
t1/2 [15]: 146.1 min
Activity (Staphylococcus aureus [16]): Active
Activity (Staphylococcus aureus [17]): Active
Cmax [18]: 4060 ng/mL
Activity [19]: Toxic
MIC (Staphylococcus aureus [20]): 4 µg/mL (≈ 9.09 µM)
Activity [21]: Non-Toxic
Activity [22]: Non-Toxic
Activity [23]: Toxic
pKd (Dihydrofolate reductase [24]): 5.81
Activity (Staphylococcus aureus [25]): Dose-Dependent Effect
AUC(0-t) at 24 h [26]: 3240 ng·h/mL
Tmax [27]: 1.33 h
pIC50 (Dihydrofolate reductase [28]): 5.38
fractional inhibitory concentration index (FICI) (Staphylococcus aureus [29]): 0.375
Activity [30]: Non-Toxic
t1/2 [31]: 26.2 min
Cmax [32]: 579 ng/mL
Activity (Staphylococcus aureus [33]): Active
fractional inhibitory concentration index (FICI) (Staphylococcus aureus [34]): 0.066
MIC (Staphylococcus aureus [35]): 0.031 µg/mL (≈ 0.0704 µM)
Activity [36]: Non-Toxic
inhibition [37]: 47.4%
